Reference: patent publication US7803982B2, “T1R3 transgenic animals, cells and related methods” (The Mount Sinai School of Medicine of New York University, priority 2001, dated 2010)
Entries after “also recorded” stand apart in the source; their conditions may differ. Counter-ions that a name gives are not always drawn.

Experiments:
Format in all cases: in vivo, mouse
[1] = tested on: glossopharyngeal (GL) nerve of T1R3 knock-out and B6 wild-type mice; assay: Whole-nerve recording from the glossopharyngeal (GL) nerve on lingual application of tastants; conditions: for GL responses of T1R3 knock-out mice compared with B6 wild-type mice: integrated response normalized to 100 mM NH4Cl
Experimental: (§1) The general linear model for repeated measurements analysis was used to compare the responses of T1R3 knock-out, B6 wild-type and 129 wild-type mice, with tastant concentration as dependant variables and genotype as fixed factor. For each compound, the responses from all concentrations were analyzed together, the response from each concentration being treated as a single value for the multiple measurement analysis. For behavioral tests, the F value is given for comparison of all genotypes. When a significant difference was found, the Tukey's test was used to determine which means differed. P values from the Tukey's test are given for T1R3 knock-out vs. B6 and for T1R3 knock-out vs. 129. When this analysis gave a borderline p value (0.05<p<0.06) each concentration was analyzed individually using the general linear model univariate analysis. For CT and GL nerve responses to glucose, maltose and sucralose the general linear model univariate analysis was used because only one concentration was tested for each of these tastants.
(§2) To examine the contributions of the gustatory nerves to the behavioral responses, we recorded from the chorda tympani (CT) branch of the facial nerve and the glossopharyngeal (GL) nerve of T1R3 knock-out and B6 wild-type mice. Recordings of electrical impulses from the chorda tympani (CT) and the glossopharyngeal (GL) nerves were performed according to known methods (Kawai, K. et al., Proc. Nat'l. Acad. Sci. USA, 97: 11044 (2000)). Male and female mice were used. Tastants were applied at a regular flow rate to the tongue for 30 seconds (CT) or 60 seconds (GL). Tastant concentrations are listed below:
(§3) At 5, 10, 15, 20 and 25 seconds (for the CT) and 5, 10, 20, 30 and 40 seconds (for the GL) after stimulus onset the integrated response magnitudes to each stimulus were measured in the chart records as magnitudes of pen deflection (mm) from baseline (before stimulation) and averaged. These averages were normalized to the response to NH4Cl and analyzed with the General Linear Model Multiple Measures of SPSS with tastant concentrations provided to subjects as “variables” and genotype differences between subjects as “factor”. The single concentrations (see FIG. 14) used for the sugars, sorbitol and saccharin were chosen to be in the midrange of CT responses of C57BL6 mice based on previous studies (Ninomiya, Y. and Imoto, T., Am J. Physiol., 268: R1019 (1995); Ninomiya, Y. et al., Am J. Physiol., 269: R930 (1995); Inoue, M. et al., Chem. Senses, 26: 915 (2001)).

[2] = tested on: chorda tympani (CT) nerve of T1R3 knock-out and B6 wild-type mice; assay: Whole-nerve recording from the chorda tympani (CT) nerve on lingual application of tastants; conditions: integrated response normalized to 100 mM NH4Cl
Experimental: as §1, §2, §3

[3] = tested on: T1R3 knock-out, B6 wild-type and 129 wild-type mice; assay: 48-hour two-bottle preference test (tastant versus water); conditions: for Behavioral (preference) response of T1R3 knock-out mice compared with B6 wild-type mice: 48 h two-bottle test, concentrations eliciting preference in B6 wild-type; for Response of T1R3 knock-out mice compared with 129 mice: two-bottle preference; for Preference responses compared among B6, 129 and T1R3 knock-out mice: B6 (taster), 129 (nontaster), T1R3 knock-out (null)
Experimental: Behavioral tests were conducted to examine the responses of T1R3 knock-out mice to tastants representing five taste qualities (sweet, bitter, salty, sour and umami). Mice of both sexes aged between 2 and 12 months were used. Age- and gender-matched mice were used in the three genotype groups, and littermates were used in the knock-out and B6 wild-type control groups. The two-bottle preference test consisted of giving the mice two bottles, one containing deionized water and the other a tastant solution, for 48 hours. The bottle positions were swapped after 24 hours to eliminate position effects. The ratio of tastant to total liquid consumed was measured and compared between groups using known methods (see, e.g., Wong, G. T. et al., Nature, 381: 796 (1996).
The tastants were presented at two-fold or three-fold ascending concentrations. The mice were allowed a 7-day recovery period with deionized water between tastants. The order of tastants for Group 1 was sucrose, quinine, SC45647, MSG, acesulfame K, sucralose and glucose. The order of tastants for Group 2 was NaCl, HCl and maltose. All tastants were of the highest purity available. MSG solutions also contained 10 micromolar amiloride to block the salty taste of the Na+. Tastant concentrations are listed below in order of presentation:
as §1

Compound | GL responses of T1R3 knock-out mice compared with B6 wild-type mice [1] | CT responses of T1R3 knock-out mice compared with B6 wild-type mice [2] | Behavioral (preference) response of T1R3 knock-out mice compared with B6 wild-type mice [3] | further results
C=C[C@H]1CN2CC[C@H]1C[C@H]2[C@H](O)c1ccnc2ccc(OC)cc12.C=C[C@H]1CN2CC[C@H]1C[C@H]2[C@H](O)c1ccnc2ccc(OC)cc12.O=S(=O)(O)O [Quinine, quinine sulfate] | unchanged |  |  | 
OC[C@H]1O[C@@](CO)(O[C@H]2O[C@H](CO)[C@@H](O)[C@H](O)[C@H]2O)[C@@H](O)[C@@H]1O [Sucrose, sucrose] | Significant differences; also recorded: reduced | markedly diminished; also recorded: moderately or markedly diminished | markedly diminished; also recorded: indifference | GL nerve responses of B6 wild-type mice compared with their CT responses [1]: much lower; Behavior of T1R3 knock-out mice at high tastant concentration ([3]; concentrations 5- to 10-fold those needed to elicit a strong preference in B6 wild-type mice): preferred; Response of T1R3 knock-out mice compared with 129 mice [3]: weaker
Cl [HCl] | unchanged |  |  | 
OC[C@H]1O[C@H](O[C@H]2[C@H](O)[C@@H](O)C(O)O[C@@H]2CO)[C@H](O)[C@@H](O)[C@@H]1O (mixture of isomers) [Maltose, maltose] |  | significant differences; also recorded: diminished; also recorded: moderately or markedly diminished | no difference | Response of T1R3 knock-out mice compared with 129 mice [3]: did not differ
N[C@H](Cc1c[nH]c2ccccc12)C(=O)O [D-tryptophan] |  | nearly abolished; also recorded: near-zero |  | 
OC[C@@H](O)[C@@H](O)[C@H](O)[C@@H](O)CO [sorbitol] |  | diminished; also recorded: moderately or markedly diminished |  | 
OC[C@H]1O[C@H](O[C@]2(CCl)O[C@H](CCl)[C@@H](O)[C@@H]2O)[C@H](O)[C@@H](O)[C@H]1Cl [Sucralose, sucralose] |  | near-zero | indifference | Preference responses compared among B6, 129 and T1R3 knock-out mice [3]: strongest in B6 mice, weakest in T1R3 knock-out mice, and intermediate in 129 mice
C[C@H](NC(=NCC(=O)O)Nc1ccc(C#N)cc1)c1ccccc1 [SC45647] | Significant differences; also recorded: reduced | markedly diminished; also recorded: near-zero | indifference | GL nerve responses of B6 wild-type mice compared with their CT responses [1]: much lower; Preference responses compared among B6, 129 and T1R3 knock-out mice [3]: strongest in B6 mice, weakest in T1R3 knock-out mice, and intermediate in 129 mice
O=C1NS(=O)(=O)c2ccccc21 [saccharin] |  | near-zero |  | 
N[C@@H](CCC(=O)O)C(=O)[O-].[Na+] [MSG, monosodium glutamate] | no differences | slightly diminished; also recorded: diminished only at the highest concentration tested | moderately diminished | Behavioral (preference) response of T1R3 knock-out mice compared with B6 wild-type mice ([3]; listed as monosodium glutamate (MSG)): reduced response; Preference of T1R3 knock-out mice compared with B6 wild-type mice ([3]; concentrations between 30 and 300 mM): reduced, but not abolished
CC1=CC(=O)[N-]S(=O)(=O)O1.[K+] [AceK, acesulfame K] | Significant differences; also recorded: reduced | markedly diminished; also recorded: near-zero | indifference | GL nerve responses of B6 wild-type mice compared with their CT responses [1]: lower at concentrations below 100 mM, but higher at 300 mM; Concentration at which the reduced GL response of T1R3 knock-out mice was evident ([1]; T1R3 knock-out vs B6 wild-type): 30 to 300 mM; Preference responses compared among B6, 129 and T1R3 knock-out mice [3]: strongest in B6 mice, weakest in T1R3 knock-out mice, and intermediate in 129 mice
O=C[C@H](O)[C@@H](O)[C@H](O)[C@H](O)CO [Glucose, glucose] |  | not significantly diminished | reduced response; also recorded: slightly reduced | Response of T1R3 knock-out mice compared with 129 mice [3]: did not differ
[Cl-].[Na+] [NaCl] | unchanged |  |  | 
O=C(CO)[C@@H](O)[C@H](O)[C@H](O)CO [fructose] |  | diminished; also recorded: moderately or markedly diminished |  | 
